From ChEMBL document CHEMBL4000193, “Discovery of a Chemical Probe Bisamide (CCT251236): An Orally Bioavailable Efficacious Pirin Ligand from a Heat Shock Transcription Factor 1 (HSF1) Phenotypic Screen” (J Med Chem, 2017) come the findings set out here.

One series deals with SK-OV-3. In words: cells. The note with it: Homo sapiens, SK-OV-3, 96 h, read-out: pGI50 (converted).
The next series concerns WM 266-4. In words: Anti-migratory activity against human WM266.4 cells at 1 to 1000 nM after 30 hrs by scratch-wound assay. The series is classed as functional, cell-based.
Series [1] in a line: Drug uptake in NCr nude mouse tumor xenografted with human SKOV3 cells at 20 mg/kg, po qd measured after 33 days. Conditions: read-out: Drug uptake. Format: ADME, organism-based, Neoplasm. Background: A xenograft is tissue or cells of one species grown in another, often human tumour cells in immunodeficient mice.

Active and inactive are the calls of the source. No cut-off for these calls is given here.

Description for SK-OV-3: Antiproliferative activity against human SKOV3 cells after 96 hrs by CellTiter Blue assay

On to `Cc1ccc(NC(=O)c2ccc3c(c2)OCCO3)cc1NC(=O)c1ccc2nc(OCCN3CCCCC3)ccc2c1`, for which the GI50 in the series on SK-OV-3 is 1.07 nM.

With `Cc1ccc(NC(=O)c2cccc3c2OCCO3)cc1NC(=O)c1ccc2nc(OCCN3CCCC3)ccc2c1`, the outcome in the series with WM 266-4 was inactive.

`Cc1ccc(NC(=O)c2ccc3c(c2)OCCO3)cc1NC(=O)c1ccc2nc(OCCN3CCCC3)ccc2c1`: in series [1], the concentration at […] came out at 940 nM.
